How the values were obtained:
Conditions in all cases: human
Hepatotoxicity [1] = assay: FDA HLAED, alkaline phosphatase increase
Hepatotoxicity [2] = assay: FDA HLAED, serum glutamic pyruvic transaminase (SGPT) increase
Hepatotoxicity [3] = assay: FDA HLAED, gamma-glutamyl transferase (GGT) increase
Hepatotoxicity [4] = assay: FDA HLAED, liver enzyme composite activity
Hepatotoxicity [5] = assay: FDA HLAED, serum glutamic oxaloacetic transaminase (SGOT) increase
Hepatotoxicity [6] = assay: FDA HLAED, lactate dehydrogenase (LDH) increase
Wherever GGT Increase - Index Value is given: reference of the scale not given here.
Wherever LDH Increase - Index Value is given: reference of the scale not given here.

## Nc1cc(Cl)c(N=C2NCCN2)c(Cl)c1 [APRACLONIDINE]
Hepatotoxicity [1]
  Alkaline Phosphatase Increase - Activity Score: Inactive
  Alkaline Phosphatase Increase - Index Value: 0
  Alkaline Phosphatase Increase - Number of Reports: < 4
Hepatotoxicity [2]
  SGPT Increase - Activity Score: Inactive
  SGPT Increase - Index Value: 0
  SGPT Increase - Number of Reports: < 4
Hepatotoxicity [3]
  GGT Increase - Activity Score: Inactive
  GGT Increase - Index Value: 0
  GGT Increase - Number of Reports: < 4
Hepatotoxicity [4]
  Composite Activity - Active: 0
  Composite Activity - Marginal: 0
  Composite Activity - Score: Inactive
Hepatotoxicity [5]
  SGOT Increase - Activity Score: Inactive
  SGOT Increase - Index Value: 0
  SGOT Increase - Number of Reports: < 4
Hepatotoxicity [6]
  LDH Increase - Activity Score: Inactive
  LDH Increase - Index Value: 0
  LDH Increase - Number of Reports: < 4

## COc1ccc(CCN2CCC(Nc3nc4ccccc4n3Cc3ccc(F)cc3)CC2)cc1 [ASTEMIZOLE]
Hepatotoxicity [1]
  Alkaline Phosphatase Increase - Activity Score: Inactive
  Alkaline Phosphatase Increase - Index Value: 1.2
  Alkaline Phosphatase Increase - Number of Reports: >= 4
Hepatotoxicity [2]
  SGPT Increase - Activity Score: Inactive
  SGPT Increase - Index Value: 2.8
  SGPT Increase - Number of Reports: >= 4
Hepatotoxicity [3]
  GGT Increase - Activity Score: Inactive
  GGT Increase - Index Value: 1.4
  GGT Increase - Number of Reports: >= 4
Hepatotoxicity [4]
  Composite Activity - Active: 0
  Composite Activity - Marginal: 0
  Composite Activity - Score: Inactive
Hepatotoxicity [5]
  SGOT Increase - Activity Score: Inactive
  SGOT Increase - Index Value: 2.6
  SGOT Increase - Number of Reports: >= 4
Hepatotoxicity [6]
  LDH Increase - Activity Score: Inactive
  LDH Increase - Index Value: 0.4
  LDH Increase - Number of Reports: < 4

## CC(C)NCC(O)COc1ccc(CC(N)=O)cc1 (centres undefined) [ATENOLOL]
Hepatotoxicity [1]
  Alkaline Phosphatase Increase - Activity Score: Inactive
  Alkaline Phosphatase Increase - Index Value: 0.1
  Alkaline Phosphatase Increase - Number of Reports: < 4
Hepatotoxicity [2]
  SGPT Increase - Activity Score: Inactive
  SGPT Increase - Index Value: 0.3
  SGPT Increase - Number of Reports: >= 4
Hepatotoxicity [3]
  GGT Increase - Activity Score: Inactive
  GGT Increase - Index Value: 0
  GGT Increase - Number of Reports: < 4
Hepatotoxicity [4]; Liver
  Composite Activity - Active: 0
  Composite Activity - Marginal: 0
  Composite Activity - Score: Inactive
Hepatotoxicity [5]
  SGOT Increase - Activity Score: Inactive
  SGOT Increase - Index Value: 0.5
  SGOT Increase - Number of Reports: >= 4
Hepatotoxicity [6]
  LDH Increase - Activity Score: Inactive
  LDH Increase - Index Value: 0.1
  LDH Increase - Number of Reports: < 4

## CC(C)c1c(C(=O)Nc2ccccc2)c(-c2ccccc2)c(-c2ccc(F)cc2)n1CC[C@@H](O)C[C@@H](O)CC(=O)O [ATORVASTATIN]
Hepatotoxicity [1]
  Alkaline Phosphatase Increase - Activity Score: Inactive
  Alkaline Phosphatase Increase - Index Value: 1.7
  Alkaline Phosphatase Increase - Number of Reports: >= 4
Hepatotoxicity [2]
  SGPT Increase - Activity Score: Active
  SGPT Increase - Index Value: 7.3
  SGPT Increase - Number of Reports: >= 4
Hepatotoxicity [3]
  GGT Increase - Activity Score: Active
  GGT Increase - Index Value: 6.2
  GGT Increase - Number of Reports: >= 4
Hepatotoxicity [4]; Liver
  Composite Activity - Active: 3
  Composite Activity - Marginal: 0
  Composite Activity - Score: Active
Hepatotoxicity [5]
  SGOT Increase - Activity Score: Active
  SGOT Increase - Index Value: 6.5
  SGOT Increase - Number of Reports: >= 4
Hepatotoxicity [6]
  LDH Increase - Activity Score: Inactive
  LDH Increase - Index Value: 2.5
  LDH Increase - Number of Reports: >= 4

## O=C1C(O)=C([C@H]2CC[C@H](c3ccc(Cl)cc3)CC2)C(=O)c2ccccc21 [ATOVAQUONE]
Hepatotoxicity [1]
  Alkaline Phosphatase Increase - Activity Score: Inactive
  Alkaline Phosphatase Increase - Index Value: 0
  Alkaline Phosphatase Increase - Number of Reports: < 4
Hepatotoxicity [2]
  SGPT Increase - Activity Score: Inactive
  SGPT Increase - Index Value: 18.2
  SGPT Increase - Number of Reports: < 4
Hepatotoxicity [3]
  GGT Increase - Activity Score: Inactive
  GGT Increase - Index Value: 0
  GGT Increase - Number of Reports: < 4
Hepatotoxicity [4]
  Composite Activity - Active: 0
  Composite Activity - Marginal: 0
  Composite Activity - Score: Inactive
Hepatotoxicity [5]
  SGOT Increase - Activity Score: Inactive
  SGOT Increase - Index Value: 18.2
  SGOT Increase - Number of Reports: < 4
Hepatotoxicity [6]
  LDH Increase - Activity Score: Inactive
  LDH Increase - Index Value: 9.1
  LDH Increase - Number of Reports: < 4

## O=C(O)CCCCCCCC(=O)O [AZELAIC ACID]
Hepatotoxicity [1]
  Alkaline Phosphatase Increase - Activity Score: Inactive
  Alkaline Phosphatase Increase - Index Value: 0
  Alkaline Phosphatase Increase - Number of Reports: < 4
Hepatotoxicity [2]
  SGPT Increase - Activity Score: Inactive
  SGPT Increase - Index Value: 0
  SGPT Increase - Number of Reports: < 4
Hepatotoxicity [3]
  GGT Increase - Activity Score: Inactive
  GGT Increase - Index Value: 0
  GGT Increase - Number of Reports: < 4
Hepatotoxicity [4]
  Composite Activity - Active: 0
  Composite Activity - Marginal: 0
  Composite Activity - Score: Inactive
Hepatotoxicity [5]
  SGOT Increase - Activity Score: Inactive
  SGOT Increase - Index Value: 0
  SGOT Increase - Number of Reports: < 4
Hepatotoxicity [6]
  LDH Increase - Activity Score: Inactive
  LDH Increase - Index Value: 0
  LDH Increase - Number of Reports: < 4

## CN1CCCC(n2nc(Cc3ccc(Cl)cc3)c3ccccc3c2=O)CC1 (centres undefined) [AZELASTINE]
Hepatotoxicity [1]
  Alkaline Phosphatase Increase - Activity Score: Inactive
  Alkaline Phosphatase Increase - Index Value: 0
  Alkaline Phosphatase Increase - Number of Reports: < 4
Hepatotoxicity [2]
  SGPT Increase - Activity Score: Inactive
  SGPT Increase - Index Value: 0
  SGPT Increase - Number of Reports: < 4
Hepatotoxicity [3]
  GGT Increase - Activity Score: Inactive
  GGT Increase - Index Value: 0
  GGT Increase - Number of Reports: < 4
Hepatotoxicity [4]
  Composite Activity - Active: 0
  Composite Activity - Marginal: 0
  Composite Activity - Score: Inactive
Hepatotoxicity [5]
  SGOT Increase - Activity Score: Inactive
  SGOT Increase - Index Value: 0
  SGOT Increase - Number of Reports: < 4
Hepatotoxicity [6]
  LDH Increase - Activity Score: Inactive
  LDH Increase - Index Value: 0
  LDH Increase - Number of Reports: < 4

## CC[C@H]1OC(=O)[C@H](C)[C@@H](O[C@H]2C[C@@](C)(OC)[C@@H](O)[C@H](C)O2)[C@H](C)[C@@H](O[C@@H]2O[C@H](C)C[C@H](N(C)C)[C@H]2O)[C@](C)(O)C[C@@H](C)CN(C)[C@H](C)[C@@H](O)[C@]1(C)O [AZITHROMYCIN]
Hepatotoxicity [1]
  Alkaline Phosphatase Increase - Activity Score: Inactive
  Alkaline Phosphatase Increase - Index Value: 1
  Alkaline Phosphatase Increase - Number of Reports: >= 4
Hepatotoxicity [2]
  SGPT Increase - Activity Score: Inactive
  SGPT Increase - Index Value: 2.3
  SGPT Increase - Number of Reports: >= 4
Hepatotoxicity [3]
  GGT Increase - Activity Score: Inactive
  GGT Increase - Index Value: 1
  GGT Increase - Number of Reports: >= 4
Hepatotoxicity [4]
  Composite Activity - Active: 0
  Composite Activity - Marginal: 0
  Composite Activity - Score: Inactive
Hepatotoxicity [5]
  SGOT Increase - Activity Score: Inactive
  SGOT Increase - Index Value: 2.9
  SGOT Increase - Number of Reports: >= 4
Hepatotoxicity [6]
  LDH Increase - Activity Score: Inactive
  LDH Increase - Index Value: 0.8
  LDH Increase - Number of Reports: >= 4

Source: ChEMBL document CHEMBL1697781, “Assessment of the health effects of chemicals in humans: II. Construction of an adverse effects database for QSAR modeling” (Curr Drug Discov Technol, 2004)
